Data as given in PubChem BioAssay (NCI).
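Values below derive from 48-hour exposures of cells grown in 96-well plates, with endpoints linearly interpolated between the two concentrations bracketing the appropriate inhibition level. TGI: total growth inhibition.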

Assays:
[1] = system: DMS 114 small cell lung; assay: NCI-60 cell line screen, 48 h
[2] = system: XF 498 CNS; assay: NCI-60 cell line screen, 48 h

Row | Structure (SMILES) | TGI [1] | TGI [2]
1 | COC(=O)C(=O)C(C(=O)OC)C(=O)C(=O)Nc1c(C)cccc1C (centres undefined) | > 100 µM | > 100 µM
2 | Nc1nc2c(N)cc(C(F)(F)F)cc2nc1-c1ccccc1 | > 100 µM | > 100 µM
3 | COc1ccc2[nH]c3c(c2c1)[C@H](c1ccccc1)C[C@@H]1C(=O)N(c2ccccc2)C(=O)[C@H]31 | 92.7 µM | 55.8 µM
4 | CCOC1=C2N=C(C(CC)c3ccccc3F)N=C2C(=O)c2ccccc21 (centres undefined) | > 100 µM | 
5 | CC(C)c1cccc(C(C)C)c1NC(=O)C(=O)Cc1nc2ccc([N+](=O)[O-])cc2[nH]c1=O | > 100 µM | 
6 | N#CC(NNC(=O)Cc1ccccc1)c1cccc(O)c1 (centres undefined) | > 100 µM | 
7 | CN(C)CCNc1ccc2ncn3c4ccccc4c(=O)c1c23 | 13.7 µM | 
8 | Cc1c(O)c(=O)ccn1CCN | > 100 µM | 
9 | CC1=C(c2nc3ccccc3s2)C(=O)OC1(C)C | > 100 µM | > 100 µM
10 | COC(=O)C1CC2C=CC=CC(=O)C2(C)C1 (centres undefined) | > 100 µM | 
11 | CC(=O)Nc1[nH]n(C)c(=O)c1-c1nnc(C)s1 | > 100 µM | > 100 µM
12 | COc1ccc(N2C(=O)c3c(c4[nH]c5ccccc5c4c4ccc(C(C)(C)C)cc34)C2=O)cc1 | > 100 µM | 49.8 µM
13 | O=Cc1c[nH]c2c(=O)[nH]cnc12 | > 100 µM | 
14 | CC(C)(C)N=CN1C=Cc2nc3ccccc3cc2C1 | > 100 µM | > 100 µM
15 | CCCCCCCC/C=C1\CCC(CN(C)C)C1=O (centres undefined) | 13.6 µM | 12.8 µM
16 | CCOC(=O)c1c2ccc(/C=C/c3ccccn3)ccc-2c(C(=O)OCC)c1N | > 100 µM | 
